Results published in patent US12415939B2, “Nano-adhesive and surface primer compound and use thereof” (The Regents of the University of California, priority 2015, dated 2025).
Values belong to the compound of their own block, whether it stands above or below them.

Experiments:
[1] = Cyclic voltammetry of catechol oxidation; type: physicochemical; details: DI water, scan rate 1 mV s−1, Ag/AgCl reference
Procedure: (§1) Cyclic voltammetry was performed on a Versastat 3 potentiostat from Ametek Co. These analyses were carried out using a three-electrode cell: a Pt wire as the counter electrode, an Ag/AgCl reference electrode, and a Carbon paste electrode (CPE) served as the working electrode. CPE is the best choice for adhesive materials because of its ability to be completely polished before each experiment. Catechol auto-oxidation was avoided by performing all electrochemical experiments with degassed deionized water in a glove bag under argon. Scan rate 1 mV s-1 was used for all experiments. CV of 5 mM synthesized polymers and 5 mM methyl catechol, a simple catechol-containing compound, were compared. Oxidation of Catechol carrying molecules occurred at more positive potentials than methyl catechol, indicating the unique structure of the dispersions provide shielding effects that stabilized catechol groups (FIG. 3).
Cyclic voltammetry was performed on a Versastat 3 potentiostat from Ametek Co. (Berwyn, PA). These analyses were carried out using a three-electrode cell: a Pt wire as the counter electrode, an Ag/AgCl reference electrode, and a Carbon paste electrode (CPE) served as the working electrode. CPE is the best choice for adhesive materials because of its ability to be completely polished before each experiment.
as §1, with “s^−1” for “s-1”, “molecules” for “polymers”, “groups. Z-Cat-Ben with an oxidation peak at 840 mV is more resistant to oxidation than the other species” for “groups”, “42).” for “3).”

[2] = Lap shear test of cured PMA resin on primed tooth enamel; parameters: species or system human
Procedure: 1 wt % primer solution was spread on mica, glass, tooth enamel, or a silicon wafer and incubated for 1 min, followed by thorough washing with methanol (for MDP, P1-P3) or DMSO (for P4) and drying by flowing nitrogen. The surfaces were exposed to a basic aqueous solution (pH 9, using sodium hydroxide), incubated for 1 min, and drying by flowing nitrogen (see FIG. 52). The methacrylic comonomer blend (Bis-GMA, TEGDMA, DMAEMA and CQ) was packed in a gelatin capsule (size #4, 5-mm diameter, Torpac Inc.) and placed up on top of the primer-treated substrates. The comonomer blend was cured (or crosslinked) for 1 min using a portable dental curing lamp (Foshan Liang Ya Dental Co., LY-A180, 420-480 nm, 1200-2000 mW·cm^−2) (see FIG. 53). Uniaxial compression was applied to the capsule at a rate of 0.05 inch min^−1 using a materials testing system (MTS Bionix 200) until the capsules are separated from the substrate. The lap shear fracture measurements were repeated at least 10 times for each condition.

[3] = QCM-D adsorption of primers; type: physicochemical; details: for surface concentration of adsorbed layer: Sauerbrey, after rinsing
Procedure: A ‘static cell’ (often called ‘Open Module’) QCM-D (Q-Sense, Biolin Scientific) was employed to quantitatively evaluate the adsorption of each primer onto SiO2 surface using a quartz sensor (QSX 303, Biolin Scientific). Changes in resonance frequency (ΔF) and dissipation (ΔD) of the SiO2 were recorded and used to measure the adsorbed mass and layer viscoelasticity, respectively, of the primer deposited on the sensor. In detail, pure solvent (100 μl) was dropped onto the sensor and equilibrated for ˜20-30 min. Then, 2 wt % primer solution (100 μl) was dropped onto the sensor (this is labeled “Solution Drop-in” in FIG. 51) and equilibrated until the frequency and dissipation signals stabilized. To remove unbound primers, the sensor was rinsed with solvents (this is labeled “Solvent Rinsing” in FIG. 51) and equilibrated until frequency and dissipation signals stabilized.
Mass loss of P3 and P4 during the rinsing was negligible compared to P2 which lost 60% of initial mass, indicating outstanding adsorption efficiency of catechol-containing primers on SiO2 surfaces even compared to mussel foot protein adsorption (˜30% loss of mfp-3s^3). The priming thickness of P4 estimated by QCM-D is ˜3.1 nm which agrees with the average height of AFM images (˜3.5 nm), assuming that QCM-D measures the average thickness of a uniform layer. The smaller average thickness of P4 (˜3.1 nm) compared to the molecular contour length (˜4.8 nm) may be attributed to the flexible alkyl spacer in P4. The possibility of a softer, more flexible layer with P4 is supported by a higher change in dissipation (ΔD) compared to other primers.

[4] = SFA adhesion of cured PMA resin between primer-treated mica surfaces
Procedure: Atomically-smooth muscovite mica sheets were freshly cleaved (thickness of 2-5 μm) and attached on another large freshly cleaved mica backing sheet under a laminar flow hood and placed in a desiccator for clean storage. To ensure use of a fresh surface for each experiment, mica was peeled away from the backing sheet and glued on cylindrical disks using an epoxy glue (EPON 1004 F® from Exxon Chemicals). In each experiment, the mica surfaces were treated with one of the primer solutions, as described for the lap shear experiments, and then mounted in the SFA in a cross cylindrical geometry. In contrast to typical SFA experiments, which use an interferometric method to calculate the disk-disk separation distances and thus the interaction forces, in the SFA used here for adhesion testing, the disk separations were directly measured using semiconductor strain-gauged double cantilever springs (k=1000-10000 N/m)(see FIG. 67). After separating the surfaces, 100 […]1 of comonomer blend was injected between the two surfaces. Then, ˜600 mN of load was applied, followed by visible light curing for 1 min using the portable dental curing lamp (see FIG. 54G). Adhesion strength of cured polymer toward the mica was measured by detaching (unloading) two surfaces. All loading and unloading were performed using a coarse micrometer at the velocity of […]. The SFA measurements were repeated at least 5 times for each condition.

[5] = Surface forces apparatus (SFA) cohesion/adhesion between thin films on mica; type: physicochemical; details: for cohesion (or adhesion) energy Wc: symmetric films adsorbed from 5 mM, DI water
Procedure: The interaction between two surfaces can be measured with nano-Newton level force resolution and Angstrom level resolution in the separation distance between the surfaces. The details of the SFA techniques have been describe in a work by Israelachvili et al. In a typical SFA experiment (FIG. 2C), the distance and the force between the surfaces are measured simultaneously. To begin with, the instrument is calibrated at large separation distances. When the two surfaces are not interacting, i.e., they are separated by large distances, the change in the separation between them is equal to the distance through which the motor moves the lower surface towards or away from the upper surface (or the upper surface driven by the piezo-tube moves towards the lower surface). However, once the surfaces are close enough to start interacting with each other, the measured separation distance deviates from the expected separation calibrated when there is no force between the surfaces. This deviation is due to the deflection of the double cantilever spring and is directly proportional to the force acting normally between the two opposing surfaces. Thus the normal force can be measured using Hooke's law, F=kΔx, where k is the spring constant of the double-cantilever spring and Δx=Dactual−Dapplied is the deflection of the spring, determined by taking the difference between the applied change in position of one of the surfaces Dapplied and the actual change in distance measured between the surfaces Dactual. The actual distance, Dactual, between the surfaces can be measured by multiple beam interferometry (MBI) and will be discussed below.
The distance between the surfaces, shape of the interface and the refractive index of the media between the surfaces can be accurately determined by Multiple Beam Interferometry (MBI) technique. In this technique, white light is directed through two back-silvered mica surfaces (or uniform and same thickness). As a white light passes between the mica surfaces, it undergoes interference due to the optical trap set up by the back silver on each of these surfaces giving rise to discrete wavelengths of light (FIG. 2C). These wavelengths of light are resolved in a spectrometer creating interference fringes known as ‘fringes of equal chromatic order’ (FECO). Since mica is birefringent, the FECO appears as doublets and termed as β and γ. Alternate fringes are termed as odd and even fringes with odd fringes having nodes at the center and even fringes with anti-nodes in the center. The FECO is then recorded on a camera and analyzed to determine the distance between the surfaces using the following equations: […]
The adhesion/cohesion energy of the synthetic zwitterionic molecules was investigated in SFA (SurForce LLC, Santa Barbara, CA). Two molecularly smooth freshly cleaved back silvered mica surfaces glued on cylindrical silica discs of radius of curvature, R˜2 cm, were mounted in the SFA and 50 μL of a colloidal dispersion of the synthetic molecules in DI water were injected between the surfaces at different concentrations (C=0.5-5 mM) and the forces between the thin films of the molecules were measured by Multiple Beam Interferometry (MBI). The adhesion forces between Z-Cat-C10 molecules on various surfaces, e.g., silica and copper, were also measured by AFM (MFP-3D, Asylum research, Goleta, CA) in DI water and ambient conditions, respectively, at room temperature. AFM probes with a silicon dioxide particle (10, 5, and 1 μm, respectively) on a silicon nitride (SN) cantilever-0.6 N m^−1 were purchased from Novascan Technologies, Inc (Ames, IA). Cantilever spring constants were measured for each force run. Images of Z-Cat-C10 coating on silicon wafer and copper plates were visualized in an AFM. […]

Structure (SMILES): Cc1ccc(O)c(O)c1 [4-methylcatechol, reference compound]
E1/2 [1]: ~0.12 V
E1/2 ([1]; listed as methyl catechol): 0.124 V

Structure (SMILES): C=C(C)C(=O)OCCCCCCCCCCOP(=O)(O)O [MDP, 10-methacryloyloxydecyl dihydrogen phosphate, reference compound]
lap shear strength σshear,max [2]: 3.1±0.2 MPa

Structure (SMILES): CN(C)CCOP(=O)(O)OCCCc1ccccc1 [Z-Ben-C8]
film (hard-wall) thickness ([5]; deposited at 0.5 mM in DI water): 2 nm
hard-wall thickness ([5]; films adsorbed from 5 mM, mica): ~5 nm
cohesion (or adhesion) energy Wc ([5]; mica): without cohesive tendencies

Structure (SMILES): CN(C)CCOP(=O)(O)OCCCc1ccc(O)c(O)c1 [Z-Cat-C4]
cohesion (or adhesion) energy Wc ([5]; mica): 19.2±2.4 mJ m^−2

Structure (SMILES): CN(C)CCOP(=O)(O)OCCCc1ccc(O)c(O)c1 [Z-Cat-C6]
cohesion (or adhesion) energy Wc ([5]; mica): 9.6±1.1 mJ m^−2

Structure (SMILES): CN(C)CCOP(=O)(O)OCCCc1ccc(O)c(O)c1 [Z-Cat-C8]
interaction energy ([5]; 0.5 mM concentration): ~22 mJ m^−2
cohesion (or adhesion) energy Wc ([5]; mica): 2.5±0.3 mJ m^−2

Now from value to compound, other results behind:

surface concentration of adsorbed layer [3]: 0 ng/cm^2
Structure (SMILES): C=CC(=O)OCc1ccccc1 [P1, Benzyl acrylate, reference compound]
increase in adhesion vs plain mica (no primer) [4]: no increase in adhesion
lap shear strength σshear,max [2]: no increase in the lap shear strength

surface concentration of adsorbed layer [3]: 230 ng/cm^2
mass loss during rinsing ([3]; of initial mass): 60%
Structure (SMILES): C=CC(=O)OCc1ccc(O)cc1 [P2, 4-Hydroxybenzyl acrylate]
increase in adhesion vs plain mica (no primer) [4]: no increase in adhesion
lap shear strength σshear,max [2]: no increase in the lap shear strength
